Test results taken from patent US20240091172A1, “DRUG FOR ANTAGONIZING REPLICATION OF PORCINE REPRODUCTIVE AND RESPIRATORY SYNDROME VIRUS AND APPLICATION THEREOF” (NANJING AGRICULTURAL UNIVERSITY, priority 2019, published 2024).
pIC50: −log10 of the molar value.

What was measured:
[1] = system: PRRSV; assay: Anti-PRRSV activity of xanthohumol derivatives on Marc-145; format: cell-based, porcine reproductive and respiratory syndrome virus
[2] = system: PRRSV BB0907 strain; assay: Piglet treatment experiment after PRRSV infection; format: in vivo, piglets; details: for virus level in the serum vs virus-infected positive control group: 4-14 dpi
[3] = system: PRRSV; assay: Natural product drug library screening, PRRSV infection of Marc-145 cells; format: cell-based, porcine reproductive and respiratory syndrome virus; details: for inhibitory effects on PRRSV: second round hits
Protocol: Marc-145 cells were treated with 10 μM of natural products and then infected with PRRSV. In the first round of screening, 24 compounds (6.21%) had no obvious cytotoxicity to Marc-145 cells and could reduce PRRSV-induced CPE by 50% (FIG. 1A).

[4] = system: Marc-145 cells; assay: Cytotoxicity to Marc-145 cells (CCK8, CC50); format: cell-based
Protocol: (§1) Cell viability was detected with the enhanced CCK8 kit. The concentration (CC50) at which Xn was cytotoxic to 50% of the cells was calculated using GraphPad Prism 7.0 software. DMSO was used as a negative control.
(§2) Further, the inhibitory efficiency of Xn on PRRSV in Marc145 cells was detected by indirect immunofluorescence. […] To further determine the dose range of Xn with the anti-PRRSV activity, Marc-145 cells were treated with 5 μM, 10 μM, and 15 μM Xn respectively, and then infected with PRRSV (0.01 MOI).

[5] = Cytotoxicity to Marc-145 cells (CCK8, CC50); format: cell-based; details: African green monkey, Marc-145 cells; Marc145 cells, CCK8 cytotoxicity assay
Protocol: as §1, §2

[6] = system: PRRSV; assay: IC50 against PRRSV in Marc145 cells by indirect immunofluorescence; format: cell-based; details: Porcine reproductive and respiratory syndrome virus
Protocol: (§3) Xn of different concentrations was added to a PAMs medium (1-30 μM), and a DMSO negative control group was set up. Cells were inoculated with PRRSV (0.01 MOI) and incubated at 37° C. for 30 h, and the cell supernatant was pipetted and discarded. The cells were fixed with 4% (volume ratio) paraformaldehyde for 15 min, permeabilized with 0.1% (volume ratio) Triton X-100 for 30 min, and washed 3 times with PBS for 3 min each time. A PRRSV N protein monoclonal antibody (2H7) at a dilution of 1:1000 was added, and the cells were incubated at 37° C. for 1 h, and washed 3 times with PBST for 3 min each time. Alexa Fluor 594 goat anti-mouse IgG at a dilution of 1:1000 was added, and the cells were incubated at 37° C. for 45 min. The nuclei were stained with DAPI for 10 min at room temperature. Three photos were recorded randomly with a Nikon A1 confocal microscope. The fluorescence intensity was measured by ImageJ software. Finally, the 50% inhibitory concentration (IC50) of Xn against PRRSV was calculated by GraphPad Prism 7.0 software, and the results were recorded.
as §2

[7] = system: PRRSV; assay: PRRSV replication in Marc-145 cells (TCID50, ORF7 mRNA, CPE/IFA, Western blot); format: cell-based, porcine reproductive and respiratory syndrome virus
Protocol: (§4) Marc-145 cells were cultured in a 96-well plate. When the cell confluence reached 70%, a nutrient solution was pipetted and discarded, and the cell surface was washed 3 times with PBS. Ten-fold serially diluted PRRSV was added to the cells and the cells were incubated at 37° C. for 1 h. The medium was replaced with fresh 2% FBS-DMEM. Virus titers were determined 5 days post-inoculation (dpi) using end-point dilution analysis. The 50% cell infectious dose (TCID50) was calculated by the Reed-Muench method.
(§5) Cellular RNAs were extracted following the operation instructions of an OMEGA RNA virus extraction kit. […] Relative fluorescence quantification was performed after reverse transcription, and the primer sequences used were as follows:
(§6) According to the method of 2-ΔΔCt, the relative content of mRNA of each gene in a sample was calculated with a CT value.
as §2

[8] = Cytotoxicity (CC50) in PAMs cells; format: cell-based, porcine; details: pig
[9] = system: PRRSV; assay: IC50 against PRRSV in PAMs by immunofluorescence; format: cell-based; details: Porcine reproductive and respiratory syndrome virus; PAMs cells
Protocol: as §3

[10] = system: PRRSV; assay: PRRSV replication in PAM cells (N protein, ORF7 mRNA, titer, different strains); format: cell-based, porcine reproductive and respiratory syndrome virus
Protocol: as §4, §5
The results are shown in FIGS. 4A-D. In PAM, Xn could inhibit the replication of different genetic subtypes of PRRSV strains in the viral ORF7 gene and protein levels, and reduce the viral infection titer.

[11] = system: PRRSV; assay: Stage experiment of drug (pre-, co-, post-treatment) in PAMs; format: cell-based, porcine reproductive and respiratory syndrome virus; details: 24 hpi
Protocol: Xn treatment time and PRRSV infection time are shown on the timeline in FIG. 5A. PAMs were inoculated into a 24-well plate, and after complete sedimentation, the time was set as −1 h. 10 μM Xn was added to a pretreatment group (Pre) at −1 h; and at 0 h; cells were inoculated 0.1 moi PRRSV and incubated at 37° C. for 1 h; the virus-containing cell culture was replaced with 2% FBS-DMEM; and the cells were cultured at 37° C. for 24 h. Xn was added to the cells in a co-treatment group (Co) at 0 h; the cells were inoculated with 0.1 moi PRRSV, and incubated at 37° C. for 1 h; the virus-containing cell culture was replaced with 2% FBS-DMEM; and the cells were cultured at 37° C. for 24 h. A post-treatment group (Post) was inoculated with 0.1 moi PRRSV at 0 h; the culture was discarded at 1 h and replaced with 2% FBS-DMEM containing 10 μM Xn; and the cells were cultured at 37° C. for 24 h.
PAMs were treated with Xn before, during and after PRRSV infection (FIG. 5A). Cell samples were collected at 24 hpi for detection of PRRSV N protein and PRRSV ORF7 mRNA by Western blot and qRT-PCR respectively, and the cell supernatant was collected for virus titer determination.

[12] = system: IL-1β, IL-6, IL-8 and TNF-α mRNA; assay: PRRSV- or LPS-induced inflammatory reaction in Marc-145 cells (qRT-PCR); format: cell-based
Protocol: as §5, §6
(§7) Marc-145 cells and PAM cells were inoculated with 0.1 MOI PRRSV and incubated at 37° C. for 1 h. The nutrient solution was replaced with DMEM-2% FBS containing Xn (or DMSO), and 24 h post infection, cellular RNAs were extracted. A positive control group was set up: Marc-145 cells and PAMs were treated with 10 μg/mL LPS (or DMEM) for 1 h; the cell surface was washed 3 times with PBS; 2% FBS-DMEM containing Xn (or DMSO) was added; and after 6 h, the cells were collected, RNAs were extracted, and the mRNA levels of IL-1β, IL-6, IL-8 and TNF-α were detected by qRT-PCR. The results are shown in FIG. 6 (Marc-145) and FIG. 7 (PAM cells).

[13] = system: IL-1β, IL-6, IL-8 and TNF-α mRNA; assay: PRRSV- or LPS-induced inflammatory reaction in PAM cells (qRT-PCR); format: cell-based, porcine
Protocol: as §5, §6, §7

[14] = Marc-145, 5, 10, 15 μM Xn, 0.01 MOI, 24, 36, 48 hpi
[15] = PAM cells, dose-dependent manner

## COc1cc(O)c(C(=O)/C=C/c2ccc(O)cc2)c(OC)c1 [Xn-4]
[1]; 0-50 uM
  anti-PRRSV activity on Marc-145: inhibitory effects
[1]; 0-50 uM, Marc-145
  anti-PRRSV effect, ranking among the three compounds: best effect
[1]; Marc-145
  concentration with an obvious antiviral effect: 15 µM
[2]; 10 mg/kg intramuscular, 5 per group, death at 10 dpi
  pigs died: 1
[2]; 10 mg/kg intramuscular, 14 days post infection
  rectal temperature of the piglets: increased
[2]; 10 mg/kg, P<0.05
  virus level in the serum vs virus-infected positive control group: significantly lower
[2]; 10 mg/kg, 14 dpi, P<0.05
  lung pathological change scores vs positive control group: significantly lower
[2]; 20 mg/kg intramuscular, days 0-14
  clinical fever and clinical symptoms: no clinical fever or obvious clinical symptoms
[2]; 20 mg/kg intramuscular, during the experiment
  survival: all were healthy and alive
[2]; 20 mg/kg, 4-10 dpi
  copy number of the PRRSV genome in the nasal swabs vs positive control group: significantly lower
[2]; 20 mg/kg, P<0.05
  virus level in the serum vs virus-infected positive control group: significantly lower
[2]; 20 mg/kg, 14 dpi, P<0.05
  PRRSV viral load in the lungs vs control group: significantly lower
  lung pathological change scores vs positive control group: significantly lower
[2]; 5, 10, 20 mg/kg, qRT-PCR
  inflammatory factors IL-1β, IL-6, IL-8 and TNF-α mRNA in the lung tissue: decreased in a dose-dependent manner

## COc1cc(/C=C/C(=O)CC(=O)/C=C/c2ccc(O)c(OC)c2)ccc1O [curcumin]
[3]
  inhibitory effects on PRRSV: dose-dependent inhibitory effects

## COc1cc(OC)c(C(=O)/C=C/c2ccc(O)cc2)c(OC)c1 [Xn-2]
[1]; 0-50 uM
  anti-PRRSV activity on Marc-145: inhibitory effects

## COc1cc(O)cc(O)c1C(=O)/C=C/c1cccc([N+](=O)[O-])c1 [Xn-5]
[4]; low concentrations
  cytotoxicity: highly cytotoxic
[1]; low concentrations
  antiviral ability: did not have antiviral ability

## Oc1c(Cl)cc(Cl)c2cccnc12 [chloroxine, reference compound]
[3]
  inhibitory effects on PRRSV: dose-dependent inhibitory effects

## COc1cc(O)c(CC=C(C)C)c(O)c1C(=O)/C=C/c1ccc(O)cc1 [Xn, xanthohumol]
[3]
  IC50, comparison among the 5 screened compounds: lowest
  selectivity index, comparison among the 5 screened compounds: highest
  inhibitory effects on PRRSV: dose-dependent inhibitory effects
[5]
  CC50 at 48 h: 62.5 µM
[4]; Marc-145 cells
  CC50, comparison among the 5 screened compounds: highest
[6]
  pIC50: 5.63
[7]; Marc-145
  replication of the three PRRSV strains (Western blot): effectively reduce
[7]; Marc-145, 48 hpi
  number of infected cells (CPE and IFA) vs negative control group: significantly less
[7]; [14]
  ORF7 mRNA level: dose-dependent decrease
  viral titers (TCID50 of PRRSV): dose-dependent decrease
[8]
  CC50: 42.6 µM
[9]
  pIC50: 5.15
[10]; PAM
  replication of different genetic subtypes of PRRSV strains (ORF7 gene and protein levels): inhibit
[10]; [15]
  level of PRRSV N protein: decreased
  level of viral mRNA: decreased
[10]; PAM, different genetic subtypes of PRRSV strains
  viral infection titer: reduce
[11]; 10 μM Xn co-treatment (Co)
  level of PRRSV replication (N protein, ORF7 mRNA, virus titer): inhibited the virus to a lower degree
[11]; 10 μM Xn post virus infection (Post)
  level of PRRSV replication (N protein, ORF7 mRNA, virus titer): significantly reduced
[11]; 10 μM Xn pretreatment (Pre)
  level of PRRSV replication (N protein, ORF7 mRNA, virus titer): inhibited the virus to a lower degree
[12]; Marc-145, 10 μg/mL LPS, 6 h, dose-dependent
  mRNA expressions of IL-1β, IL-6, IL-8 and TNF-α induced by LPS: effectively reduce
[12]; Marc-145, 0.1 MOI PRRSV, 24 h post infection, dose-dependent
  mRNA expressions of IL-1β, IL-6, IL-8 and TNF-α induced by PRRSV: effectively reduce
[12]; Marc-145, Xn alone
  intracellular inflammatory factors, Xn control treatment: did not cause changes
[13]; 10 μg/mL LPS, 6 h, dose-dependent
  mRNA expressions of IL-1β, IL-6, IL-8 and TNF-α induced by LPS: effectively reduce
[13]; 0.1 MOI PRRSV, 24 h post infection, dose-dependent
  mRNA expressions of IL-1β, IL-6, IL-8 and TNF-α induced by PRRSV: effectively reduce
[13]; Xn alone
  intracellular inflammatory factors, Xn control treatment: did not cause changes
